Data taken from EP2070521A1, “Surface-modified nanoparticles” (Bayer Schering Pharma Aktiengesellschaft, priority 2007, dated 2009).

Assay: in vivo
Details: male, NMRI nu/nu, mouse, iv, 8 mg/kg

- Kp at 1 h: 16.3
- Kp at 2 h: 29.1
- Kp at 4 h: 27.7
Structure (SMILES): C=CC[C@H]1C(=O)C(C)(C)[C@@H](O)CC(=O)O[C@H](c2ccc3sc(C)nc3c2)C[C@@H]2O[C@]2(C)CCC[C@H](C)[C@@H]1O [epothilone, (1S,3S,7S, 10R,11S,12S,16R)-7,11-dihydroxy-10-(prop-2-en-1-yl)-3-(2-methyl-benzothiazol-5-yl)-8,8,12,16-tetramethyl-4,17-dioxabicyclo[14.1.0]heptadecane-5,9-dione]
